Our source for the IC50 values is patent publication US12240862B2, “Inhibitors of peptidylarginine deiminases” (Gilead Sciences, Inc., priority 2020, dated 2025).

The structures appear in SMILES notation.

This assay deals with T1, human PAD4 (Homo sapiens, UniProt Q9UM07).
T1 construct: human PAD4 (NM_012387), A2P663, was PCR amplified; His-SUMO (N, cleaved yes); made in house; host or cells: E. coli BL21(DE3)
T1 sequence (Q9UM07 2-663): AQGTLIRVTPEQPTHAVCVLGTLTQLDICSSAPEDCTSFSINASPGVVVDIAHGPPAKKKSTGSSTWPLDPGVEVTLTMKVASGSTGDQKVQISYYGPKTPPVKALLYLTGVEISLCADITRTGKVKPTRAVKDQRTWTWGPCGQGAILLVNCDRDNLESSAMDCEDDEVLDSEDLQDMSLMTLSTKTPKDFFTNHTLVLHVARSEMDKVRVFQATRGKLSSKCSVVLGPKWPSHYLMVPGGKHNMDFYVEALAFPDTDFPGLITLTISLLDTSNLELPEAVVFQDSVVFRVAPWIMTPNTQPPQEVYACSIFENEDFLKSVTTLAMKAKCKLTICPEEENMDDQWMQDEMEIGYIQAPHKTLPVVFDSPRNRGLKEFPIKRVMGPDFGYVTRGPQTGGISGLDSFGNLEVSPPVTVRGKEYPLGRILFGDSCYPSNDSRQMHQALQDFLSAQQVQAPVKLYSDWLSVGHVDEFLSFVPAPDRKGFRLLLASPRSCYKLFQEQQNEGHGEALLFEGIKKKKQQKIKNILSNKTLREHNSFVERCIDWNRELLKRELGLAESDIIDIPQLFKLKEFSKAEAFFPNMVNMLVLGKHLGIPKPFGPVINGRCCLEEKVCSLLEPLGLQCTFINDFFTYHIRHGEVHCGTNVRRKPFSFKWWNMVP
The assay is described as follows: In vitro PAD4 BAEE biochemical assay. The following applies: human PAD4, BAEE substrate; 5 nM PAD4, 2 mM calcium chloride, 3 mM BAEE; geometric mean of multiple experiments. The procedure:
The PCR product was ligated into linearized pET-SUMO vector (Invitrogen, Carlsbad, CA), which is part of the Champion™ pET SUMO Protein Expression System. After sequence verification for the correct orientation, the pET-SUMO-hPAD4 expression plasmid was transformed into BL21(DE3) cells.
E. Coli BL21(DE3) cells were inoculated in LB medium with kanamycin at 37° C. until A600 nm reached about 0.5. Protein expression was induced by addition of 0.5 mM IPTG (final) and continued overnight at 16° C. at 220 rpm.
Cells were harvested by centrifugation at 5000 rpm for 10 minutes at 4° C. The pellet was resuspended in 300 ml lysis buffer (20 mM Tris-HCl, pH 8.0, 1 mM EDTA, 500 mM NaCl, 1 mM (tris(2-carboxyethyl)phosphine) (TCEP), 10% glycerol, and 1% Triton X100 and EDTA free protease inhibitor) and lysed by 3× passage through a microfluidizer (Microfluidics, Newton, MA) at 18,000 psi. The cell lysate was clarified by centrifugation at 30,000 rpm for 60 minutes at 4° C. […] Bound protein was eluted with a 0-100% linear gradient of 100 mL Ni-B buffer (Ni A buffer+0.5 M Imidazole).
The protein was then reloaded onto a Ni—HP column for a reverse purification step and recovered in flow through fraction. The protein with His-Sumo tag removed was then polished using a 16/60 Superdex-200 gel filtration column with gel filtration buffer (20 mM Tris pH 8.0, NaCl 400 mM and 1 mM TCEP). The fractions containing the protein were pulled and frozen at −80° C.
The enzymatic activity of human PAD4 was monitored in a biochemical assay in the presence or absence of compounds using the small peptidyl arginine mimic BAEE (Na-Benzoyl-L-arginine ethyl ester hydrochloride) as substrate. PAD4 activity led to deamination of BAEE and release of ammonia. Levels of ammonia were monitored by using an amine coupling reaction and were indicative of PAD4 enzymatic activity.
One hundred nanoliters of test compounds dissolved in DMSO at various concentrations were dispensed into a 384-well black OptiPlate using a Labcyte Echo instrument. Ten microliters of a solution of recombinant PAD4 and calcium chloride diluted in PAD4 assay buffer (50 mM MOPS [3-(N-morpholino) propanesulfonic acid], pH 7.6; 50 mM sodium chloride; 0.05% Tween-20; 2 mM dithiothreitol) was added to the compound-containing plate and was incubated for 30 minutes at 25° C. Ten microliters of a solution of BAEE (Sigma-Aldrich #B4500) diluted in PAD4 assay buffer was then added to start the reaction. Final concentrations were 5 nM PAD4, 2 mM calcium chloride, and 3 mM BAEE. The reaction mixture was incubated at 25° C. for 2 hours and was stopped with the addition of 10 microliters of a solution of 75 mM EDTA (Ethylenediaminetetraacetic acid) in PAD4 assay buffer. Thirty microliters of detection solution (5 mM o-phthalaldehyde, 50 mM MOPS [3-(N-morpholino) propanesulfonic acid], pH 7.6; 50 mM sodium chloride; 0.05% Tween-20; 5 mM dithiothreitol) was then added and the reaction was incubated for 1 hour at 25° C.
Turning to `COc1cc(C(=O)N2[C@H]3CC[C@@H]2[C@H](N)C3)cc2nc(-c3cc4ccc([C@@H](C)NC(=O)CCC(=O)NS(=O)(=O)c5ccccc5)nc4n3CC3CC3)c(C)n12` [Example 156, ~{N}-[(1~{R})-1-[2-[7-[(1~{R},2~{R},4~{S})-2-amino-7-azabicyclo[2.2.1]heptane-7-carbonyl]-5-methoxy-3-methylimidazo [1,2-a]pyridin-2-yl]-1-(cyclopropylmethyl)pyrrolo [2,3-b]pyridin-6-yl]ethyl]-~{N}′-(benzenesulfonyl) butanediamide], the IC50 was found to be 20.3 nM. For `CCc1ccc2cc(-c3nc4cc(C(=O)N5[C@H]6CC[C@@H]5[C@H](N)C6)cc(OC)n4c3C)n(C[C@@H]3C[C@@H]3C(F)(F)F)c2n1` [Example 501] the value was 827 nM. As for `COc1cc(C(=O)N2[C@H]3CC[C@@H]2[C@H](N)C3)cc2nc(-c3cc4ccc([C@@H](C)NC(=O)C5(O)CC5)nc4n3CC3CC3)c(C)n12` [Example 97, ~{N}-[(1~{R})-1-[2-[7-[(1~{R},2~{R},4~{S})-2-amino-7-azabicyclo[2.2.1]heptane-7-carbonyl]-5-methoxy-3-methylimidazo [1,2-a]pyridin-2-yl]-1-(cyclopropylmethyl)pyrrolo [2,3-b]pyridin-6-yl]ethyl]-1-hydroxycyclopropane-1-carboxamide], the IC50 was found to be 30.6 nM. On to `COc1cc(C(=O)N2[C@H]3CC[C@@H]2[C@H](N)C3)cc2nc(-c3cc4ccc([C@@H](C)NC(=O)c5ncccn5)nc4n3CC3CC3)c(C)n12` [Example 118, ~{N}-[(1~{R})-1-[2-[7-[(1~{R},2~{R},4~{S})-2-amino-7-azabicyclo[2.2.1]heptane-7-carbonyl]-5-methoxy-3-methylimidazo [1,2-a]pyridin-2-yl]-1-(cyclopropylmethyl)pyrrolo [2,3-b]pyridin-6-yl]ethyl]pyrimidine-2-carboxamide], for which the IC50 was 63.7 nM.

Turning to `COc1cc(C(=O)N2[C@H]3CC[C@@H]2[C@H](N)C3)cc2nc(-c3cc4ccc([C@H](C)CC(=O)N5CCCC5)nc4n3CC3CC3)c(C)n12` [Example 522, (3~{R})-3-[2-[7-[(1~{R},2~{R},4~{S})-2-amino-7-azabicyclo[2.2.1]heptane-7-carbonyl]-5-methoxy-3-methylimidazo [1,2-a]pyridin-2-yl]-1-(cyclopropylmethyl)pyrrolo[2,3-b]pyridin-6-yl]-1-pyrrolidin-1-ylbutan-1-one], the IC50 came out at 135 nM. As for `COCC1(C(=O)N[C@H](C)c2ccc3cc(-c4nc5cc(C(=O)N6[C@H]7CC[C@@H]6[C@H](N)C7)cc(OC)n5c4C)n(CC4CC4)c3n2)CCC1` [Example 29, ~{N}-[(1~{R})-1-[2-[7-[(1~{R},2~{R},4~{S})-2-amino-7-azabicyclo [2.2.1]heptane-7-carbonyl]-5-methoxy-3-methylimidazo[1,2-a]pyridin-2-yl]-1-(cyclopropylmethyl)pyrrolo[2,3-b]pyridin-6-yl]ethyl]-1-(methoxymethyl) cyclobutane-1-carboxamide], the figure is 108 nM.

As for `COc1cc(C(=O)N2[C@H]3CC[C@@H]2[C@H](N)C3)cc2nc(-c3cc4ccc(C5CCN(C(=O)C(C)(C)C)C5)nc4n3CC3CC3)c(C)n12` (stereo partly drawn) [Example 530, 1-[3-[2-[7-[(1~{R},2~{R}, 4~{S})-2-amino-7-azabicyclo[2.2.1]heptane-7-carbonyl]-5-methoxy-3-methylimidazo[1,2-a]pyridin-2-yl]-1-(cyclopropylmethyl)pyrrolo [2,3-b]pyridin-6-yl]pyrrolidin-1-yl]-2,2-dimethylpropan-1-one], the IC50 was 274 nM.

As to `COc1cc(C(=O)N2CC[C@H]3CCCN[C@H]3C2)cc2nc(-c3cc4ccc([C@@H](C)NC(=O)C56CC(F)(C5)C6)nc4n3CC3CC3)c(C)n12` [Example 180, ~{N}-[(1~{R})-1-[2-[7-[(4~{a}~{R},8~{a}~{R})-2,3,4,4~{a},5,6,8,8~{a}-octahydro-1~{H}-1,7-naphthyridine-7-carbonyl]-5-methoxy-3-methylimidazo [1,2-a]pyridin-2-yl]-1-(cyclopropylmethyl)pyrrolo [2,3-b]pyridin-6-yl]ethyl]-3-fluorobicyclo[1.1.1]pentane-1-carboxamide], the 50% inhibitory concentration (IC50) stood at 494 nM.

For `COc1cc(C(=O)N2[C@H]3CC[C@@H]2[C@H](N)C3)cc2nc(-c3cc4ccc([C@@H](C)NC(=O)OC(C)C)nc4n3CC3CC3)c(C)n12` [Example 254, propan-2-yl~{N}-[(1~{R})-1-[2-[7-[(1~{R}, 2~{R},4~{S})-2-amino-7-azabicyclo[2.2.1]heptane-7-carbonyl]-5-methoxy-3-methylimidazo [1,2-a]pyridin-2-yl]-1-(cyclopropylmethyl)pyrrolo [2,3-b]pyridin-6-yl]ethyl] carbamate], the IC50 was 110 nM. Take `CCc1ccc2cc(-c3nc4cc(C(=O)N5CCC[C@@H](N)C5)cc(OC)n4c3C3CC3)n(CC3CC3)c2n1` [Example 585, [(3~{R})-3-aminopiperidin-1-yl]-[3-cyclopropyl-2-[1-(cyclopropylmethyl)-6-ethylpyrrolo[2,3-b]pyridin-2-yl]-5-methoxyimidazo [1,2-a]pyridin-7-yl]methanone]: the IC50 stood at 174 nM.

For the molecule `CCO[C@@H]1CCN(C(=O)c2cc(OC)n3c(C)c(-c4cc5ccc(N(C(F)F)S(C)(=O)=O)nc5n4CC4CC4)nc3c2)C[C@@H]1N` [Example 340, ~{N}-[2-[7-[(3~{S}, 4~{R})-3-amino-4-ethoxypiperidine-1-carbonyl]-5-methoxy-3-methylimidazo [1,2-a]pyridin-2-yl]-1-(cyclopropylmethyl)pyrrolo [2,3-b]pyridin-6-yl]-~{N}-(difluoromethyl) methanesulfonamide], the IC50 amounted to 230 nM. For `COc1cc(C(=O)N2CCC[C@@H](N)C2)cc2nc(-c3cc4ccc(C(C)n5cc(C#N)cn5)nc4n3CC3CC3)c(C)n12` (stereo partly drawn) [Example 548, 1-[1-[2-[7-[(3~{R})-3-aminopiperidine-1-carbonyl]-5-methoxy-3-methylimidazo[1,2-a]pyridin-2-yl]-1-(cyclopropylmethyl)pyrrolo[2,3-b]pyridin-6-yl]ethyl] pyrazole-4-carbonitrile] the value was 532 nM. As for `COc1cc(C(=O)N2[C@@H]3CC[C@H]2[C@@H](N)[C@@H](OC)C3)cc2nc(-c3cc4ccc([C@@H](C)NC(=O)C56CC(F)(C5)C6)nc4n3CC3CC3)c(C)n12` [Example 182], the figure is 1360 nM; as for `COc1cc(C(=O)N2CCC[C@@H](N)C2)cc2nc(-c3cc4ccc(N(C(F)F)S(C)(=O)=O)nc4n3CC(F)(F)F)c(C)n12` [Example 494, ~{N}-[2-[7-[(3~{R})-3-aminopiperidine-1-carbonyl]-5-methoxy-3-methylimidazo[1,2-a]pyridin-2-yl]-1-(2,2,2-trifluoroethyl)pyrrolo [2,3-b]pyridin-6-yl]-~{N}-(difluoromethyl) methanesulfonamide], 276 nM. For `COc1cc(C(=O)N2[C@H]3CC[C@@H]2[C@H](N)C3)cc2nc(-c3cc4ccc([C@@H](C)NC(=O)N5CC[C@H](F)C5)nc4n3CC3CC3)c(C)n12` [Example 248, (3~{S})-~{N}-[(1~{R})-1-[2-[7-[(1~{R},2~{R},4~{S})-2-amino-7-azabicyclo[2.2.1]heptane-7-carbonyl]-5-methoxy-3-methylimidazo [1,2-a]pyridin-2-yl]-1-(cyclopropylmethyl)pyrrolo [2,3-b]pyridin-6-yl]ethyl]-3-fluoropyrrolidine-1-carboxamide] the value was 55.9 nM.
